Among the test systems are Escherichia coli IS37#; Escherichia coli IS117#; Shigella dysenteriae; Candida albicans; Candida glabrata; Streptococcus agalactiae.
Common to all, as to assay: ≥ marks a high value that may be exact or a test limit, other limits are often not marked, values filed in µg/mL are converted to µM
Experiment [1] has as its system Pseudomonas aeruginosa IS350#.
Experiment [2] relates to Candida albicans ATCC 90028.
Experiment [3] deals with Enterococcus faecalis ATCC 29212.
The subject of experiment [4] is Pseudomonas aeruginosa ATCC 27853.
The test system of experiment [5] is Candida albicans ATCC 2002.
In experiment [6] the test system is Klebsiella pneumoniae IS59#.
The test system of experiment [7] is Klebsiella pneumoniae ATCC 700603.
In experiment [8] the test system is Enterobacter cloacae ATCC 13047.
Experiment [9] relates to Pseudomonas aeruginosa CMCCB 1010.
Experiment [10] relates to Candida parapsilosis ATCC 22019.
Experiment [11] deals with Staphylococcus aureus ATCC 25923.
The subject of experiment [12] is Escherichia coli ATCC 25922.
The subject of experiment [13] is Mycobacterium tuberculosis H37Rv.
Experiment [14] relates to Pseudomonas aeruginosa ATCC 9027.
Experiment [15] concerns Mycobacterium tuberculosis.
The test system of experiment [16] is Salmonella typhimurium KCTC 1926.
In experiment [17] the test system is Trichosporon beigelii KCTC 7707.
Experiment [18] has as its system Pseudomonas aeruginosa KCTC 1637.
Experiment [19] has as its system Staphylococcus epidermidis KCTC 3096.
Experiment [20] deals with Candida albicans TIMM 1768.
Experiment [21] relates to Bacillus subtilis KCTC 1918.
Experiment [22] concerns Enterococcus faecalis V583.
Experiment [23] deals with Staphylococcus aureus USA 100.
The test system of experiment [24] is Lactiplantibacillus plantarum UI50.
Experiment [25] deals with Weissella viridescens NCDO 1655.
Experiment [26] deals with Latilactobacillus sakei NCDO 2714.
The subject of experiment [27] is Carnobacterium maltaromaticum UI49.
In experiment [28] the test system is Lacticaseibacillus casei NCDO 2713.
Experiment [29] concerns Lacticaseibacillus casei subsp. casei NCDO 161.
Experiment [30] relates to Pediococcus pentosaceus Pac1.0.
Experiment [31] relates to Lactiplantibacillus plantarum 965.
Experiment [32] concerns Latilactobacillus sakei 706.
Experiment [33] relates to Pediococcus pentosaceus NCDO 990.

≈ marks a conversion by molar mass, not a printed value.

Usually MIC stands for the least concentration at which growth counts as inhibited. A low value points to inhibition by little substance.

In the case of `CC[C@H](C)[C@@H]1NC(=O)[C@H](C)NC(=O)[C@@H](NC(=O)[C@H](Cc2ccccc2)NC(=O)[C@@H](NC(=O)[C@H](C)NC(=O)[C@@H]2CCCN2C(=O)CNC(=O)[C@@H](NC(=O)[C@H](CCCCN)NC(=O)[C@H](C)NC(=O)[C@H](C)NC(=O)[C@@H](NC(=O)[C@H](CCCN=C(N)N)NC(=O)[C@H](CC(C)C)NC(=O)[C@@H](NC(=O)[C@H](C)NC(=O)[C@@H]2CCCN2C(=O)[C@H](CC(C)C)NC(=O)[C@@H](N)Cc2ccccc2)C(C)C)C(C)C)C(C)C)C(C)C)CSSC[C@@H](C(=O)O)NC(=O)[C@H](CCCCN)NC(=O)[C@H](CCC(N)=O)NC(=O)[C@H]([C@@H](C)O)NC1=O` [FLPAVLRVAAKVGPAVFCAITQKC], the MIC against Escherichia coli IS37# amounted to 20 µM (≈ 50 µg/mL); in the experiment with Escherichia coli IS117#, 20 µM (≈ 50 µg/mL); in experiment [1] it was 4 µM (≈ 9.99 µg/mL); in experiment [2], 4 µM (≈ 9.99 µg/mL); in experiment [3], 4 µM (≈ 9.99 µg/mL); in [4], 2 µM (≈ 5 µg/mL). The MIC against Shigella dysenteriae came out at 4 µM (≈ 9.99 µg/mL); in experiment [5], 0.2 µM (≈ 0.5 µg/mL); in experiment [6] it was 2 µM (≈ 5 µg/mL); in [7] it was 4 µM (≈ 9.99 µg/mL); in experiment [8] it was 2 µM (≈ 5 µg/mL); in experiment [9], 4 µM (≈ 9.99 µg/mL). Further, the MIC in experiment [10] came out at 2 µM (≈ 5 µg/mL); in [11], 0.999 µM (≈ 2.5 µg/mL); in [12], 0.999 µM (≈ 2.5 µg/mL).

For the compound `CC[C@H](C)[C@H](NC(=O)[C@H](CC(C)C)NC(=O)[C@H](CO)NC(=O)[C@@H]1CCCN1C(=O)[C@@H](NC(=O)[C@H](C)NC(=O)[C@H](CCCCN)NC(=O)[C@H](CCSC)NC(=O)[C@H](C)NC(=O)[C@H](CC(C)C)NC(=O)[C@H](CCCCN)NC(=O)CNC(=O)[C@H](CC(C)C)NC(=O)[C@H](Cc1ccccc1)NC(=O)CNC(=O)[C@H](Cc1c[nH]c2ccccc12)NC(=O)[C@@H](N)Cc1ccccc1)C(C)C)C(=O)NCC(=O)NCC(=O)N[C@@H](CC(N)=O)C(=O)N[C@@H](CCCCN)C(=O)N[C@@H](CCCCN)C(=O)O` [FWGFLGKLAMKAVPSLIGGNKK], the MIC in experiment [13] turned out to be 13.6 µM (≈ 32.1 µg/mL); in experiment [14], 5 µM (≈ 11.8 µg/mL); in experiment [15], 8.5 µM (≈ 20.1 µg/mL); against Candida albicans it was 3.12 µM (≈ 7.38 µg/mL); in the experiment with Candida glabrata, 25 µM (≈ 59.1 µg/mL); in [11], 5 µM (≈ 11.8 µg/mL). Besides, the figures for the MIC (in experiment [12]; with Streptococcus agalactiae) were 24 µM (≈ 56.7 µg/mL) and 10 µM (≈ 23.6 µg/mL), respectively.

Turning to `CC[C@H](C)[C@H](NC(=O)CNC(=O)[C@@H](NC(=O)[C@H](CCCCN)NC(=O)[C@H](CCCCN)NC(=O)[C@H](Cc1ccccc1)NC(=O)[C@H](CC(C)C)NC(=O)[C@H](CCCCN)NC(=O)[C@H](Cc1c[nH]c2ccccc12)NC(=O)[C@@H](N)CCCCN)[C@@H](C)CC)C(=O)NCC(=O)N[C@@H](CCCCN)C(=O)N[C@@H](Cc1ccccc1)C(=O)N[C@@H](CC(C)C)C(N)=O` [KWKLFKKIGIGKFL], the MIC in [16] came out at 1.56 µM (≈ 2.66 µg/mL); in [17] it was 8.84 µM (≈ 15.1 µg/mL); in experiment [18] it was 3.12 µM (≈ 5.32 µg/mL); in experiment [19], 6.25 µM (≈ 10.7 µg/mL); in experiment [20] it was 12.5 µM (≈ 21.3 µg/mL); in experiment [21], 6.25 µM (≈ 10.7 µg/mL).

Regarding `CC(C)C[C@H](NC(=O)[C@H](CC(C)C)NC(=O)[C@@H](N)CC(C)C)C(=O)NCC(=O)N[C@@H](C)C(=O)N[C@@H](C)C(=O)N[C@H](C(=O)NCC(=O)O)[C@@H](C)O` [LLLGAATG], the MIC in [22] is at least 86.7 µM.

Regarding `NC(=O)[C@H](CCCN=C(N)N)NC(=O)[C@H](CO)NC(=O)[C@H](CCCN=C(N)N)NC(=O)[C@@H](N)CO` [SRSR], the MIC in [23] is at least 100 µM.

Regarding `CC[C@H](C)[C@H](NC(=O)[C@H](C)NC(=O)[C@@H](NC(=O)[C@H](C)NC(=O)CNC(=O)[C@H](CCSC)NC(=O)[C@H](CCC(N)=O)NC(=O)[C@H](CC(C)C)NC(=O)[C@H](CO)NC(=O)[C@@H](N)Cc1ccc(O)cc1)[C@@H](C)O)C(=O)N[C@@H](CCCCN)C(=O)N[C@@H](CCC(N)=O)C(=O)N[C@H](C(=O)N[C@@H](CCCCN)C(=O)N[C@@H](CCCCN)C(=O)N[C@@H](CC(C)C)C(=O)N[C@@H](Cc1ccccc1)C(=O)N[C@@H](CCCCN)C(=O)N[C@@H](CCCCN)C(=O)N[C@@H](Cc1c[nH]c2ccccc12)C(=O)NCC(=O)N[C@@H](Cc1c[nH]c2ccccc12)C(=O)O)C(C)C` [YSLQMGATAIKQVKKLFKKWGW], the MIC in experiment [24] is 6 µM (≈ 15.7 µg/mL); in experiment [25], 0.05 µM (≈ 0.131 µg/mL); in experiment [26], 0.25 µM (≈ 0.653 µg/mL); in [27], 6 µM (≈ 15.7 µg/mL); in [28] it was 6 µM (≈ 15.7 µg/mL); in [29], 0.25 µM (≈ 0.653 µg/mL). Besides, the MIC in experiment [30] amounted to 0.1 µM (≈ 0.261 µg/mL); in experiment [31], 0.5 µM (≈ 1.31 µg/mL); in experiment [32] it was 1 µM (≈ 2.61 µg/mL); in [33], 6 µM (≈ 15.7 µg/mL).
